These results are taken from paper PMC11725581, “Developing novel Lin28 inhibitors by computer aided drug design” (Cell Death Discovery, 2025).

One test concerns the target T1, Lin28b ZKD (Homo sapiens, UniProt Q6ZN17).
T1 sequence (Q6ZN17 127-166 limits assumed): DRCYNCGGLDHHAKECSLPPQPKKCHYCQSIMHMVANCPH
Put plainly: EMSA, Lin28b ZKD:pre-let-7d complex formation. Type of test: binding. The following applies: 1 μM Lin28 ZKD, 10 nM IRDye800-labeled pre-let-7d probe. As to the method: We next validated the newly developed compounds using EMSA, a non-florescent-based assay to detect Lin28b ZKD:pre-let-7 complex formation. Similar to the FP assays, we first optimized the experimental conditions by titrating: (1) IRDye800-labeled pre-let-7d RNA probe, (2) Lin28b ZKD protein, and (3) non-labeled pre-let-7 probe as a competitor (Fig. 2C). For the validation experiments, 1 μM Lin28 ZKD and 10 nM of IRDye800-labeled pre-let-7d probe were mixed with each candidate compound. Compounds C1632 and Ln15 were used as control Lin28 inhibitors, respectively. […] Regardless, we use these two biochemical assays to shortlist the most promising compounds for further characterization. […] While our inhibitors directly target the Lin28 ZKD, it is unclear whether C1632 may bind to domains other than the ZKD or allosterically disrupt Lin28’s capacity to bind its RNA substrates.
EMSA followed the standard protocols we published. An IRDye800CWN-labeled pre-Let-7d RNA probe (5’-IRD800CWN-[…]-3’) was purchased from IDT (Coralville, IA, USA). Lin28a or Lin28b proteins were incubated with 300 nM of probe in a standard 20 uL EMSA reaction in a reaction buffer containing 20 mM HEPES-NaOH, pH 7.4, 2 mM DTT, 3 mM MgCl2, 0.05% NP-40, protease inhibitors, and 0.1 ug poly[dI:dC]. After incubation for 30 min at 37 °C, reactions were loaded onto 4% non-denatured polyacrylamide gel in 0.5× TBE buffer. The RNA oligo bands were visualized by using the Li-Cor Odyssey 9120 Infrared Imaging System.
Background: A gel shift assay detects complexes by their altered migration in electrophoresis.

The test system of another test is VOA1066 cells. Put plainly: Cell proliferation (Incucyte), VOA1066. Type of test: cell-based. The text has this: (§1) To further evaluate whether the suppressive effects of Ln268 are specific to Lin28-positive cancer cells, we compared cell growth rates of DuNE (Lin28b-positive line) and Du145 (Lin28b-negative line), both of which are Lin28a-negative. DuNE has the same genomic background with Du145 except for the transduction of the SRRM4 gene. […] Furthermore, Ln268 had no impact on the cell growth of DuNE(KO) cells, in which the Lin28b gene was knocked out by CRISPR (Fig. 5C). […] We also tested several ovarian and endometrial cancer cell lines with different Lin28a and Lin28b expression profiles (Fig. 5E).

The next test relates to DuNE cells. Put plainly: Drug-drug interaction (SynergyFinder) in DuNE cells. The following applies: score higher than 10 = synergistic. Type of test: cell-based. How it is done: Fig. 6 Ln268 enhances stress inducers to inhibit cancer cell growth. A, B DuNE cells were transfected with GFP-tagged Lin28b together with either RFP-tagged G3BP1, YB-1, or DCP1. Cells were then challenged with ARS (A), cisplatin (CP) or etoposide (etop) (B) to induce a stress condition. Confocal microscope detected the subcellular localization of Lin28b. C, D Du145, DuNE and DuNE(KO) cells were treated with ARS (C), cisplatin (CP) or etoposide (etop) (D). Percentage of cells forming SGs was counted in five random fields from two replicate experiments. E DuNE and DuNE(KO) cells were treated with ARS, cisplatin or etoposide. Cell viability was measured by Incucyte. F DuNE cells were transfected with GFP-tagged Lin28b and treated with ARS together with C1632, Ln15, Ln268, or RNase. Confocal microscope detected SGs formation mediated by Lin28b. Fluorescence images were captured, and SGs sizes and numbers were calculated as shown. […] Drug interactions were calculated by SynergyFinder, with a synergy score higher than 10 representing synergistic relationship. […]
We subsequently investigated whether Ln268 could potentiate anticancer effects of stress inducers to block cancer cell growth in vitro. First, we determined the IC50 values of each inhibitor, which were then used to formulate drug-drug interactions of Ln268 with cisplatin, etoposide, or ARS (Figure S5). […]

Another test has as its system Kuramochi cells. Put plainly: Cell proliferation (Incucyte), Kuramochi. The test is classed as cell-based. To be noted: Lin28a/Lin28b-positive.
Source text: as §1

Another test deals with Du145 spheroids. Put plainly: Du145 spheroid growth. Type of test: cell-based. To be noted: 0-192 h.
Source text: as §1
(§2) For a spheroid generation, 1000 cells/well were seeded in 96-well ULA round-bottomed plates (Corning, Amsterdam) using a multichannel pipette. 3D multicellular spheroids were spontaneously generated after 24 h culture. Plates were incubated for 6 days at 37 °C, 5% CO2, and 95% humidity. DuNE and Du145 cells were cultured in DMEM with 10% FBS. Fully automated image analysis of tumor spheroids was carried out with the Incucyte® S3 Live-Cell Analysis System. The size and shape of multicellular spheroids were analyzed by using the Incucyte® Spheroid Analysis Software Module.

In another test the test system is DuNE spheroids. Briefly: DuNE 3D spheroid growth (Incucyte). Type of test: cell-based.
Source text: CSCs have characteristic tumorigenic, self-renewal, and differentiation properties. The self-renewal ability is hijacked by CSCs that makes them both tumorigenic and capable of sustaining long-term tumor growth, which can be evaluated by 3D spheroid and colony formation assays. We established a DuNE spheroid model in which DuNE cells formed 3D spheroids in 96-well plates (Figure S3). By integrating this 3D culture with the Incucyte live-cell imaging system, we quantified the sizes of the spheroid growth over 0–6 days to generate a spheroid growth curve. Using this model system, we treated the DuNE spheroids with increasing doses (0–100 μM) of C1632, Ln15, and Ln268 for 0–6 days. […] In addition, classic colony formation assays were used to measure the stemness in the DuNE model. Colony formation counts, which were ~50 under vehicle treatment after 14 days, decreased by 22% in C1632-treated plates, and by 75% and 96% in the Ln15 and Ln268 treated plates, respectively (Fig. 4D).
as §2

The next test has as its system HEC1B cells. Briefly: Cell proliferation (Incucyte), HEC1B. The test is classed as cell-based. The following applies: Lin28a/Lin28b-negative.
Source text: as §1

Entries after “also recorded” stand apart in the source; their conditions may differ.

On to `O=c1[nH]c(Nc2ccc(F)cc2O)cs1` [Ln268], for which the “inhibition of Lin28b ZKD:pre-let-7d complex formation (EMSA)” value against Lin28b ZKD is “capable of inhibiting Lin28:pre-let-7d complex formation in a dose-dependent manner”. Also, the “effect on growth of VOA1066 cells” value in the test with VOA1066 cells (Lin28a/Lin28b-positive) is “suppressed the growth”. This molecule also came in with an IC50 in the test with VOA1066 cells (cells express both Lin28a and Lin28b at relatively high levels) of 0.4 µM. In addition, in the test with DuNE cells, the “synergy score, Ln268 + cisplatin” value came out at 19.39 and the “synergy score, Ln268 + etoposide” value amounted to 12.77. For the same molecule, the “effect on growth of Kuramochi cells” value with Kuramochi cells was “suppressed the growth”. For the same molecule, in the test with Du145 spheroids, the “effect on Du145 spheroids” value is on record as “no effect”. In addition, in the test on DuNE spheroids, the “effect on DuNE spheroid growth” value is on record as “strongest potency among all 13 candidate compounds; also recorded: efficiently blocked DuNE spheroid growth in a time-dependent manner”, the “potency improvement over parent compound Ln15 (spheroid growth)” value is given as ~ 2 fold and the “potency relative to C1632 (spheroid growth)” value is on record as “approximately 10 fold”. Besides, in the test on DuNE spheroids (0-100 μM, 0-6 days, read-out: concentration to achieve 50% spheroid growth inhibition), the IC50 stood at 10 µM. Besides, the “effect on growth of HEC1B cells” value in the test on HEC1B cells is on record as “no or minimal impacts”.
